Experimental findings from ChEMBL document CHEMBL4765313, “Synthesis, in vitro evaluation and molecular docking of a new class of indolylpropyl benzamidopiperazines as dual AChE and SERT ligands for Alzheimer's disease” (Eur J Med Chem, 2020) are described below.

One may read the IC50 as the concentration that gives 50% inhibition. As a reminder, the inhibition is the drop in the measured response relative to a control, in per cent.

Activity calls are given as the source filed them. The calls are words filed in the database; no cut-off is given here.

In one data set the test system is HEK293. Nature of the data set: Cytotoxicity against human HEK293 cells assessed as reduction in cell viability incubated for 72 hrs by MTT assay. It counts as ADME, cell-based. Conditions: HEK293, 72 h.
In data set [1] the test system is N2a. Nature of the data set: Decrease in APP-C99 in mouse N2a cells transfected with human APP695 by Western blot analysis. It counts as functional, cell-based.
The nature of data set [2]: Reduction of beta-Amyloid40 level in mouse N2a cells transfected with human APP695 at 10 uM incubated for 16 hrs by ELISA relative to control. It counts as functional.
The next data set deals with SH-SY5Y. Nature of the data set: Cytotoxicity against human SH-SY5Y cells assessed as reduction in cell viability incubated for 72 hrs by MTT assay. In kind it is ADME, cell-based. Background: Tetrazolium dyes change colour on reduction, which living cells bring about.
The nature of data set [3]: Solubility of compound at pH 7.4 at 1 to 100 uM. It counts as physicochemical. Conditions: buffer, pH 7.4, 100 µM; dose 1-100 µM.
The target of the next data set is Acetylcholinesterase (Homo sapiens, UniProt P22303). Nature of the data set: Inhibition of human plasma AChE using acetylthiocholine iodide as substrate preincubated for 15 mins followed by substrate addition and measured after 10 mins by Ellman's method. It counts as cell-free.
Chain of Acetylcholinesterase (P22303 whole entry): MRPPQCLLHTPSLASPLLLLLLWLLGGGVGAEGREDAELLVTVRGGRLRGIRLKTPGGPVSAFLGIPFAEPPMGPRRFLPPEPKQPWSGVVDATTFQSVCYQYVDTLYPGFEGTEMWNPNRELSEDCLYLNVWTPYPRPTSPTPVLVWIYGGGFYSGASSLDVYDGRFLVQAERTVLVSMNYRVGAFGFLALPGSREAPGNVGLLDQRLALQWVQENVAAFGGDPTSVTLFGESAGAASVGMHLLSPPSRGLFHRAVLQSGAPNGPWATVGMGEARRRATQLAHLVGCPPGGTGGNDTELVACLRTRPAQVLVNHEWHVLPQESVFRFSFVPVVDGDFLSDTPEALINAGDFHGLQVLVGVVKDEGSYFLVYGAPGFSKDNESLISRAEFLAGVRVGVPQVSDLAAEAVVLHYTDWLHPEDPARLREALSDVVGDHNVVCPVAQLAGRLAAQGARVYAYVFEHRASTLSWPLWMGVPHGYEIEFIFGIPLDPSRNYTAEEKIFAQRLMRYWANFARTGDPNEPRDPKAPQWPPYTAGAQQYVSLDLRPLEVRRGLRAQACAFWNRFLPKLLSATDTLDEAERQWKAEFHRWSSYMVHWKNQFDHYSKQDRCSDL
The target of data set [4] is Sodium-dependent serotonin transporter (Homo sapiens, UniProt P31645). Nature of the data set: Displacement of [3H]paroxetine from human SERT expressed in human HEK293 cells incubated for 30 mins by liquid scintillation counting analysis. In kind it is cell-based. On the technique in general: Displacement assays read how much labelled ligand stays bound in the presence of the test substance.
Chain of Sodium-dependent serotonin transporter (P31645 whole entry): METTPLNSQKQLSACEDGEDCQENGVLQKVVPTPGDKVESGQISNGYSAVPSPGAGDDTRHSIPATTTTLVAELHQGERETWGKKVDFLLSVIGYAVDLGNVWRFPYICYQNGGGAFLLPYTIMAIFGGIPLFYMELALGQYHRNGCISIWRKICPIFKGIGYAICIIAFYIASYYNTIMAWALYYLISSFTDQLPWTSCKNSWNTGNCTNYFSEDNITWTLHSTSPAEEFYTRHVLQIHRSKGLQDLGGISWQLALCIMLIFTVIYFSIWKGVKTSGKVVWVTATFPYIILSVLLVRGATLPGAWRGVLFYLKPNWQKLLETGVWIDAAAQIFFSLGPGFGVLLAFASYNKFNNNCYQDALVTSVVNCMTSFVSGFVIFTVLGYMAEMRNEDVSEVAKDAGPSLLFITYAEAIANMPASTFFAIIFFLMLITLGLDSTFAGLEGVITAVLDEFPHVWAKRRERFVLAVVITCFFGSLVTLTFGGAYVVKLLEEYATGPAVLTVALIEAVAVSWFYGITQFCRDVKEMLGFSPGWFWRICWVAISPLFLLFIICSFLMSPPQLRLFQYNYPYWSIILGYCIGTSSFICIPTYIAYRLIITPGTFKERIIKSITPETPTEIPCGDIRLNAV

For data set [5], the system named is N2a. Put plainly: Effect on APP in mouse N2a cells transfected with human APP695 by Western blot analysis. In kind it is functional, cell-based. Background: Immunoblotting shows a protein as a band on a membrane.

`O=C(CN1CCN(C(=O)c2cccc(Br)c2)CC1)N1CCN(CCCc2c[nH]c3ccccc23)CC1`: the IC50 in the data set with HEK293 is 80.7 µM; with SH-SY5Y it was 80.5 µM; against Acetylcholinesterase it was 23 µM; in data set [4], above 1000 µM. Also, the inhibition entry with N2a [1] is “Active”. For the same compound, the inhibition at 10 µM in data set [2] worked out at 50%. Further, the solubility entry in data set [3] is “Soluble”. The result with N2a [5] was inactive.
